Patent publication US12516056B2, “Compounds for inhibition of janus kinase 1” (MANKIND PHARMA LTD., priority 2019, dated 2026)
Where two headings read alike, the source gives them in different places.

Legend:
[1] = molecular target: T1, Recombinant JAK1 (Homo sapiens, UniProt P23458); experiment: JAK biochemical assay (LANCE Ultra TR-FRET), JAK1; conditions: recombinant JAK1, TR-FRET; read-out: Biochemical Assay (μM) JAK1
T1 construct: purchased Carna Biosciences
In short: (§1)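 Kinase reactions ran in buffer of 50 mM HEPES pH 7.5 with 1 mM EGTA, 10 mM MgCl2, 2 mM DTT and 0.01% Tween-20, using recombinant enzyme. Phosphorylated ULight substrate was detected by TR-FRET, and compound effect expressed as % inhibition against vehicle.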

[2] = molecular target: T2, Recombinant JAK2 (Homo sapiens, UniProt O60674); experiment: JAK biochemical assay (LANCE Ultra TR-FRET), JAK2; conditions: recombinant JAK2, TR-FRET; read-out: Biochemical Assay (μM) JAK2
T2 construct: purchased Carna Biosciences
T2 sequence (O60674 whole entry): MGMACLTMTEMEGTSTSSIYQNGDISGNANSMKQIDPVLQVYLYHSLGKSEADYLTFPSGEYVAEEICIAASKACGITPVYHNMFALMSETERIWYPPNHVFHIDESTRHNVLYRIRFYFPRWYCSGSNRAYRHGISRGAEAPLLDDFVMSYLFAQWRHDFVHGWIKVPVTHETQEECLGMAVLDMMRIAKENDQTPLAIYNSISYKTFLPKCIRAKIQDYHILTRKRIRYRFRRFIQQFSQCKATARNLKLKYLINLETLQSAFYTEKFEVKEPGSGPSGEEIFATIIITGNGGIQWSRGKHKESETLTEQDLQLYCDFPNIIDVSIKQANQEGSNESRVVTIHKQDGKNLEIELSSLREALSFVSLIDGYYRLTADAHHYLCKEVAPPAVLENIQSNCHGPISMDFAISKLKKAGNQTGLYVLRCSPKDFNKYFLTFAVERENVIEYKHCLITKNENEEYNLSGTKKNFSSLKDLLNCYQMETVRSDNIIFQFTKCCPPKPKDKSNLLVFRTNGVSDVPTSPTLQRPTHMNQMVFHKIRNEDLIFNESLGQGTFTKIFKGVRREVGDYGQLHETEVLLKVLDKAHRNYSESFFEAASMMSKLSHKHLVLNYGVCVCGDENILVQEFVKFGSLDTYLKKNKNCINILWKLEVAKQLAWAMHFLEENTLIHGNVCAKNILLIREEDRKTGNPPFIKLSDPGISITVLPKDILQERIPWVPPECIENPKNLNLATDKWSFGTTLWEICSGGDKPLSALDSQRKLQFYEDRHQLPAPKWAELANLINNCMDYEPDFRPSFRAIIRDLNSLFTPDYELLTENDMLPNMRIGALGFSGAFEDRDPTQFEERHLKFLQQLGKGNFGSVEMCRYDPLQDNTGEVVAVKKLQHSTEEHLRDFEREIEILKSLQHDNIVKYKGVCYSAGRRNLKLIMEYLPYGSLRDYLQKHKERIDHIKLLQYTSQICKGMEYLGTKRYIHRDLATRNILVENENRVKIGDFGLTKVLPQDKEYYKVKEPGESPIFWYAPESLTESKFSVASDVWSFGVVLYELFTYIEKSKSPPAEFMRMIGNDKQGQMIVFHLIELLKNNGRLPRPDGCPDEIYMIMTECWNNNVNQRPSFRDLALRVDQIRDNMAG
In short: as §1

[3] = molecular target: T3, Recombinant JAK3 (Homo sapiens, UniProt P52333); experiment: JAK biochemical assay (LANCE Ultra TR-FRET), JAK3; conditions: recombinant JAK3, TR-FRET; read-out: Biochemical Assay (μM) JAK3
T3 construct: purchased Carna Biosciences
T3 sequence (P52333 1-1124): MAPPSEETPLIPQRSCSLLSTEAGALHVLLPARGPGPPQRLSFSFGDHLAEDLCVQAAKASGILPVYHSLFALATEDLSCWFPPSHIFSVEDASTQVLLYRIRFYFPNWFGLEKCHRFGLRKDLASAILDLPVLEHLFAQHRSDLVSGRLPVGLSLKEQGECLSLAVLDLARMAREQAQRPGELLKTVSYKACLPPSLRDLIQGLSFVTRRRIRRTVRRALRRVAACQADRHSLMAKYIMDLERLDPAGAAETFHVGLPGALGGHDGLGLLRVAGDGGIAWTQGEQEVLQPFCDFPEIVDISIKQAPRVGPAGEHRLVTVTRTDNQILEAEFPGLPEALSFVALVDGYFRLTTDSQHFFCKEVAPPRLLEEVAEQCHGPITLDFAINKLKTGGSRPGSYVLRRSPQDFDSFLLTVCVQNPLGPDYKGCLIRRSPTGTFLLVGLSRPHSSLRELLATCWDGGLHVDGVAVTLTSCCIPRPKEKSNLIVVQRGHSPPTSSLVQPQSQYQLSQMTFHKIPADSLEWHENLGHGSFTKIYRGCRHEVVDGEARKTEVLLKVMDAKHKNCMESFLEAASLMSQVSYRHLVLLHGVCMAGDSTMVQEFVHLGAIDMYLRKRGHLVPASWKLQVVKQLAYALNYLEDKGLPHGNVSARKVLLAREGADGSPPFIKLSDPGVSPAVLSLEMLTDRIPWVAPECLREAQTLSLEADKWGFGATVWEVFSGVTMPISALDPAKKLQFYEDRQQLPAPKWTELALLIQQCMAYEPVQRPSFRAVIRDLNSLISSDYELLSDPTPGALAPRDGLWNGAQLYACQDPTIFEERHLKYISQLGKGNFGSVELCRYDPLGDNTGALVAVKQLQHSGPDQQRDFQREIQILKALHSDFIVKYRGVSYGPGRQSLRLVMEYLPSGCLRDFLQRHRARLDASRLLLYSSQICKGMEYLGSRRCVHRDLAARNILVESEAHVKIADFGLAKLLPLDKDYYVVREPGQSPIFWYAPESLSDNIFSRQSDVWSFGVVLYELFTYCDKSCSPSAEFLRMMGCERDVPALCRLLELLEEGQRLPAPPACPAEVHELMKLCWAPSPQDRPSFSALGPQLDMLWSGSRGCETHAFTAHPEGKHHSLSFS
In short: as §1

[4] = molecular target: T4, Recombinant TYK2 (Homo sapiens, UniProt P29597); experiment: JAK biochemical assay (LANCE Ultra TR-FRET), TYK2; conditions: recombinant TYK2, TR-FRET; read-out: Biochemical Assay (μM) TYK2
T4 construct: purchased Carna Biosciences
T4 sequence (P29597 whole entry): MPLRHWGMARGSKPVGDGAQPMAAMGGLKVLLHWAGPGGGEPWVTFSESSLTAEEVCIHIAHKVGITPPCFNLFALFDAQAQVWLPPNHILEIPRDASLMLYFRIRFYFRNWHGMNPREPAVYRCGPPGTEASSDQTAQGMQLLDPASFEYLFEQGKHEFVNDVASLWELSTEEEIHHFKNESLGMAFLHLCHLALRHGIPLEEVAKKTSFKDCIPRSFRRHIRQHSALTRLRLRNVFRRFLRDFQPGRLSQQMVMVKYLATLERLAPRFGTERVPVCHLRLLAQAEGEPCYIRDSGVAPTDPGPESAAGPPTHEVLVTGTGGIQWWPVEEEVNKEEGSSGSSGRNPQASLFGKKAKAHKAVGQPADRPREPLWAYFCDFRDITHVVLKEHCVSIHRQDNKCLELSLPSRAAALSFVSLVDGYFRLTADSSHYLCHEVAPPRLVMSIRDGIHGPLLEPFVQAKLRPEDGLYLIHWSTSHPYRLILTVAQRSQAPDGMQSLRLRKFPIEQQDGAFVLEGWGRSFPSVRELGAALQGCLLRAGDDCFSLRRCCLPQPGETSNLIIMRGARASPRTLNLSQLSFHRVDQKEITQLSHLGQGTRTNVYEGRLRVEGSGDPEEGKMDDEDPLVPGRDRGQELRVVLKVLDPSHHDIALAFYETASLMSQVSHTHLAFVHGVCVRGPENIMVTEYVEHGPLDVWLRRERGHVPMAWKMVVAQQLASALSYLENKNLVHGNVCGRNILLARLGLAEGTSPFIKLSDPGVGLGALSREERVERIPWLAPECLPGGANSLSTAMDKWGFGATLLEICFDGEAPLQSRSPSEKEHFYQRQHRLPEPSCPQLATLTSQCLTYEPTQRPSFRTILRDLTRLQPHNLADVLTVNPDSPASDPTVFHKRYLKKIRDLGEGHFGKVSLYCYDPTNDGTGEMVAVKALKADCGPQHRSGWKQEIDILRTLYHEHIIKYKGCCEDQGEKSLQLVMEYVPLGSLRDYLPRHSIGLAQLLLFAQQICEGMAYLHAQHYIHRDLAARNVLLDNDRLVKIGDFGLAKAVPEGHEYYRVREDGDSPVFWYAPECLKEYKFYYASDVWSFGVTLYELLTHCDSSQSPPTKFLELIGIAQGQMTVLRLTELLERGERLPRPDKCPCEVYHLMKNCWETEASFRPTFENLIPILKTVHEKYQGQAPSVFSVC
In short: as §1

[5] = test system: STAT3 phosphorylation by IL-6 in TF-1 cells; experiment: JAK cellular assay: STAT3 phosphorylation by IL-6 in TF-1 cells (HTRF); type: cell-based; conditions: Homo sapiens, TF-1, TF-1 cells, IL-6 30 ng/ml, pSTAT3 HTRF; read-out: Cell Based Assay (μM) TF-1/IL-6/pSTAT3
In short: (§2)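 Phospho-STAT3 (IL-6, 30 ng/ml) and phospho-STAT5 (GMCSF, 5 ng/ml) read by HTRF in lysates after 20 min cytokine exposure, minus unstimulated-cell background. Cells were serum-starved overnight, plated at 120,000/well, given compound 30 min at 37 °C beforehand; DMSO 0.2% final.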

[6] = test system: STAT5 phosphorylation by IL-2 in HT-2 cells; experiment: STAT5 phosphorylation by IL-2 in HT-2 cells (HTRF); type: cell-based; conditions: IL-2 50 U/ml, pSTAT5 HTRF, read-out: Cell Based Assay (μM) HT-2/IL-2/pSTAT5
Experimental: HT-2 cells were starved […] in RPMI phenol red with 10% fetal bovine serum for 4 hours in CO2 incubator maintained at 37° c. Compounds were diluted in DMSO and added to 96 well plate containing a final density of 1,20,000 cells per well. Cells and compounds are incubated for 30 minutes in CO2 incubator maintained at 37° C. and final DMSO concentration in cell based assay was 0.2%. Human recombinant cytokine, IL-2 (50 U/ml) was added to the plate containing cells and compound and incubated for 20 minutes with gentle tapping/shaking at every 5 minutes once. Compound mediated effects on STAT5 phosphorylation was measured in the lysates prepared by using CISBIO pSTAT5 detection kit by HTRF method. Background signal obtained from cells which were not activated with cytokines, was subtracted from vehicle controls and compound treated wells.

[7] = test system: STAT5 phosphorylation by GMCSF in TF-1 cells; experiment: JAK cellular assay: STAT5 phosphorylation by GMCSF in TF-1 cells (HTRF); type: cell-based; conditions: Homo sapiens; TF-1 cells, GMCSF 5 ng/ml, pSTAT5 HTRF; read-out: Cell Based Assay (μM) TF-1/GMCSF/pSTAT5
In short: as §2

T1 sequence (P23458 whole entry): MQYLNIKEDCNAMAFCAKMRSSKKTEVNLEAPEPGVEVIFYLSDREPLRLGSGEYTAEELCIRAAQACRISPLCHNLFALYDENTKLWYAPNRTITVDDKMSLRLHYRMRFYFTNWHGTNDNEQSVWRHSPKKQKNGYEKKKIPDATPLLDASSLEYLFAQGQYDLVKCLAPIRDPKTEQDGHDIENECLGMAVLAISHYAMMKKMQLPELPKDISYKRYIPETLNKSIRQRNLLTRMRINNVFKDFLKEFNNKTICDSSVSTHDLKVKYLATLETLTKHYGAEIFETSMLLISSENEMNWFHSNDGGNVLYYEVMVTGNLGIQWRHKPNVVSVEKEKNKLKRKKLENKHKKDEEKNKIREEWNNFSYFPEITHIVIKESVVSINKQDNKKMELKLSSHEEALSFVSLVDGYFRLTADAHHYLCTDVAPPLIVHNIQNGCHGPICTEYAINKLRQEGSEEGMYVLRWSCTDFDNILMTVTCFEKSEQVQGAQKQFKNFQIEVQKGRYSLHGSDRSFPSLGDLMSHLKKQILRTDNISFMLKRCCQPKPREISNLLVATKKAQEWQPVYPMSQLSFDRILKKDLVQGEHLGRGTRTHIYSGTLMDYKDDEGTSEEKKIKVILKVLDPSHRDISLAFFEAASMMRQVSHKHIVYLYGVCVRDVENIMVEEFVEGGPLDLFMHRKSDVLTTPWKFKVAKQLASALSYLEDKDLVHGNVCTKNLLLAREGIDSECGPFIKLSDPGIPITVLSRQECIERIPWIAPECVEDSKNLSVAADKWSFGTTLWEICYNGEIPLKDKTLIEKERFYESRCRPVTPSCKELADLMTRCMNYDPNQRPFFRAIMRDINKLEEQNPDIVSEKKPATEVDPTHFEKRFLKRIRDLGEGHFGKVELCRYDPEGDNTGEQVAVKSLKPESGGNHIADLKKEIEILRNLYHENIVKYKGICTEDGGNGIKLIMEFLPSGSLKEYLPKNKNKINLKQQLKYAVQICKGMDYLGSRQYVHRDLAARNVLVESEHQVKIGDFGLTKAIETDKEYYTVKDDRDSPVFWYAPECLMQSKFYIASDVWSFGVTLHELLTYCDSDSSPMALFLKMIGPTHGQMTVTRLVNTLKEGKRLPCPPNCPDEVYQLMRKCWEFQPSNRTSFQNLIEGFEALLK

IC50 [1] | IC50 [2] | IC50 [3] | IC50 [4] | IC50 [5] | IC50 ([6]; HT2, HT-2 cells) | IC50 ([6]; HT-2 cells) | IC50 [7] | SMILES
< 0.1 µM | < 0.1 µM | < 0.1 µM | > 1 µM | > 0.5 µM | > 1 µM | – | – | CNC(=O)CCC(c1ccc(-n2cc(-c3ccnc4[nH]cnc34)cn2)nc1)C(F)(F)F (stereo not shown) [Example 1148, 4-(6-(4-(3H-imidazo[4,5-b]pyridin-7-yl)-1H-pyrazol-1-yl)pyridin-3-yl)-5,5,5-trifluoro-N-methylpentanamide]
< 0.1 µM | > 0.1 µM | < 0.1 µM | > 1 µM | > 0.5 µM | > 0.5 µM | – | – | O=C(NCCC(c1ccc(-n2cc(-c3ccnc4[nH]cnc34)cn2)nc1)C(F)(F)F)C1CC1 (stereo not shown) [Example 1149, N-(3-(6-(4-(3H-imidazo[4,5-b]pyridin-7-yl)-1H-pyrazol-1-yl)pyridin-3-yl)-4,4,4-trifluorobutyl)cyclopropanecarboxamide]
< 0.1 µM | < 0.1 µM | < 0.1 µM | > 0.5 µM | > 0.1 µM | – | > 0.1 µM | – | CNCCC(c1ccc(-n2cc(-c3ccnc4[nH]cnc34)cn2)nc1)C(F)(F)F (stereo not shown) [Example 1152, 3-(6-(4-(3H-imidazo[4,5-b]pyridin-7-yl)-1H-pyrazol-1-yl)pyridin-3-yl)-4,4,4-trifluoro-N-methylbutan-1-amine]
> 0.1 µM | > 0.5 µM | > 0.5 µM | > 1 µM | > 0.5 µM | > 1 µM | – | – | N#CCCC(c1ccc(-n2cc(-c3ccnc4[nH]cnc34)cn2)nc1)C(F)(F)F (stereo not shown) [Example 1156, 4-(6-(4-(3H-imidazo[4,5-b]pyridin-7-yl)-1H-pyrazol-1-yl)pyridin-3-yl)-5,5,5-trifluoropentanenitrile]
< 0.1 µM | < 0.1 µM | < 0.1 µM | > 0.1 µM | > 0.75 µM | – | – | > 1 µM | CCN1CCC(C(O)(c2ccc(-n3cc(-c4ccnc5[nH]cnc45)cn3)nc2)C(F)(F)F)CC1 (stereo not shown) [Example 1221, 1-(6-(4-(3H-imidazo[4,5-b]pyridin-7-yl)-1H-pyrazol-1-yl)pyridin-3-yl)-1-(1-ethylpiperidin-4-yl)-2,2,2-trifluoroethanol]
– | > 0.03 µM | > 0.03 µM | > 0.1 µM | > 1 µM | > 0.75 µM | – | – | CC(=O)N1CC(C(O)(c2ccc(-n3cc(-c4ccnc5[nH]cnc45)cn3)nc2)C(F)(F)F)C1 (stereo not shown) [Example 1236, 1-(3-(1-(6-(4-(3H-imidazo[4,5-b]pyridin-7-yl)-1H-pyrazol-1-yl)pyridin-3-yl)-2,2,2-trifluoro-1-hydroxyethyl)azetidin-1-yl)ethanone]
0.006 µM | 0.056 µM | 0.023 µM | 0.06 µM | 0.05 µM | – | – | 0.26 µM | CCN1CC(C(O)(c2ccc(-n3cc(-c4ccnc5[nH]cnc45)cn3)nc2)C(F)(F)F)C1 (stereo not shown) [Example 1239, 1-(6-(4-(3H-imidazo[4,5-b]pyridin-7-yl)-1H-pyrazol-1-yl)pyridin-3-yl)-1-(1-ethylazetidin-3-yl)-2,2,2-trifluoroethanol]
> 0.01 µM | > 0.03 µM | > 0.03 µM | > 1 µM | > 0.5 µM | – | – | > 1 µM | CC(C)N1CCC(C(O)(c2ccc(-n3cc(-c4ccnc5[nH]cnc45)cn3)nc2)C(F)(F)F)CC1 (stereo not shown) [Example 1240, 1-(6-(4-(3H-imidazo[4,5-b]pyridin-7-yl)-1H-pyrazol-1-yl)pyridin-3-yl)-2,2,2-trifluoro-1-(1-isopropylpiperidin-4-yl)ethanol]
– | 0.06 µM | 0.023 µM | 0.19 µM | > 1 µM | > 1 µM | – | – | CC(C)C(=O)NCCC(c1ccc(-n2cc(-c3ccnc4[nH]cnc34)cn2)nc1)C(F)(F)F (stereo not shown) [Example 1247, N-(3-(6-(4-(3H-imidazo[4,5-b]pyridin-7-yl)-1H-pyrazol-1-yl)pyridin-3-yl)-4,4,4-trifluorobutyl)isobutyramide]
